Measured values as given in patent US8912226B2 (priority 2012, dated 2014).
Where “and” joins values, the source holds several entries; their conditions need not be identical. Identical values can stand only once.

Test system: rat
Experiment: animal or person
Format: in vivo
Settings: for ED50: ip

SMILES | ED50 (Rattus norvegicus, 2 h) [mg/kg] | timepoint of peak effect (rat, in vivo) [min p. appl.] | ED50 (rat, in vivo)
O=C(O)Cc1ccccc1Nc1c(Cl)cccc1Cl [Diclofenac sodium] | 127 | 120 | 127,036 μg/kg and 127,036 (119,433- μg/kg
COc1ccc2c(c1)c(CC(=O)O)c(C)n2C(=O)c1ccc(Cl)cc1 [Indometacin] | 161 | 120 | 161,327 μg/kg and 161,327 (149,231- μg/kg
